Measurements from PMC11077815, “Synthesis and antitumor activity of dolutegravir derivatives bearing 1,2,3-triazole moieties” (BMC Chemistry, 2024).

Columns and labels:
Assay type in all cases: cell-based, Human
PC-9 [1] = assay: Apoptosis assay (Annexin V-FITC/PI flow cytometry), PC-9; conditions: 48 h
Method: (§1) Further, the effects of 9e and 9p on the apoptosis of tumor cells were studied to get details of the suppression of cell proliferation caused by these compounds. PC-9 and H460 cells treated with different concentrations of 9e or 9p were stained with Annexin V-FITC and PI, and the numbers of apoptosis cells were analyzed by the flow cytometry.
(§2) PC-9 and H460 cells were cultured in 6-well plates with a density of 3 × 10^5 cells/well. Different concentrations of 9e or 9p were added to cells for 48 h respectively. The concentrations were 0, 2, 4, and 8 µM for PC-9 cells and 0, 4, 8 and 16 µM for H460 cells. After treatment, Annexin V-FITC Apoptosis Detection Kit was used to determine the apoptotic ratio and FlowJo software v10 was used to analyze of the results.

LC3 = assay: Western blot of LC3 in PC-9 cells; conditions: PC-9, 0, 2, 4, 8 µM, 48 h
Text: (§3) To determine the role of compounds 9e and 9p on regulating the development of cell proliferation, expressions of key proteins which were involved in cell growth progresses such as autophagy, apoptosis, cell cycle and DNA damage were examined. Ubiquitin like molecule light chain 3 (LC3) is a key marker of autophagy. […] Caspase3, which is one of the key proteins in regulating apoptosis, however, was not changed in tumor cells after treated with 9e or 9p. Cell cycle regulation proteins such as CyclinD, CyclinE or β-catenin were also not affected when PC-9 was treated with 9e or 9p. Further, H2AX variant histone (γ-H2AX), which was responsible for DNA damage, was also not affected when PC-9 were treated with 9e or 9p.
(§4) Protein expression levels were measured by western blot. PC-9 cells were cultured in 12-well plates and different concentrations (0, 2, 4, 8µM) of 9e and 9p were added for 48 h. Proteins were extracted from whole cells using radioimmunoprecipitation assay (RIPA). Buffer containing protease/phosphatase inhibitor cocktail (CST). Sodium dodecyl sulfate (10-15%) polyacrylamide gel electrophoresis and nitrocellulose membranes (Millipore) were used to separate and collect proteins. Antibodies used include, LC3 (3868s, CST), Caspase3 (9662, CST), cyclin D (2922s, CST), cyclin E (20808s, CST), γ-H2AX (9718s, CST), and β-actin (4967s, CST).

H460 [2] = assay: Cellular ROS measurement (DCFH-DA), H460; conditions: H460, 5 µM and 10 µM, 24 h, DCFH-DA staining
Method: (§5) Reactive oxygen species could induce cell death and suppress cell growth and proliferation. To assess the role of compounds 9e and 9p in ROS generation, different cancer cell lines were treated with 9e or 9p for 24 h. DCFDA was used to stain cells and ROS was detected with fluorescent microscope.
(§6) PC-9 and H460 cells were cultured in 96-well plates in a density of 5 × 10^3 cells/well. Different concentrations (0, 5 and 10 µM) of 9e or 9p were added to cells respectively for 24 h. After treatment, cells were stimulated with 10 µM DCFH-DA for 30 min at 37 °C, then observed and photographed using a fluorescent microscope.

PC-9 [3] = assay: LIVE/DEAD staining, PC-9; conditions: PC-9, 5, 10 or 20 µM, 24 h
Method: LIVE/DEAD staining experiments were carried out to evaluate the anti-proliferative activity of dolutegravir derivatives 9e and 9p against PC-9 and H460 cell lines. The tumor cells were treated with 5 µM, 10 µM or 20 µM of 9e and 9p for 24 h. The live and dead cells were photographed and counted.
PC-9 and H460 cells with a density of 5 × 10^3 cells/well were seeded on the 96-well plates. Then different concentrations (0, 5 µM, 10 µM, 20 µM) of 9e or 9p were treated for 24 h. Cells were then stained with the LIVE/DEAD Assay Kit, observed and photographed using the fluorescent microscope.

CyclinD = assay: Western blot of CyclinD in PC-9 cells; conditions: PC-9, 0, 2, 4, 8 µM, 48 h
Text: as §3, §4

PC-9 [4] = assay: CCK8 cell viability assay, PC-9; conditions: for Cell viability (100%): PC9, 20 µM, 48 h, CCK8, control = 100%; for IC50: PC9, 48 h, CCK8, mean ± SE
Method: (§7) At first, CCK8 assay was carried out to evaluate the anti-proliferative activity of dolutegravir-1,2,3-triazole derivatives against different cancer cell lines. The results of cell viability of three lung cancer cell lines A549, PC-9 and H460 in the presence of compounds 9 and 10 are summarized in Table 2. Cells were treated with different compounds at the concentration of 20 µM for 48 h. […] Human lung cancer cell lines A549, PC-9 and H460 were all obtained from ATCC. Cells were cultured in DMEM or RPMI 1640 medium containing 10% FBS and 1% penicillin/streptomycin at 37 °C with a 5% CO2-humidified atmosphere. CCK8 assay was used to measure cell viability. Cells with a density of 1 × 10^4 cells/well were seeded on the 96-well plates. After adhesion, cells were treated with different diluted compounds or vehicle control DMSO and continue cultured for 48 h. Then, CCK8 reagent was added for one hour incubation at 37 °C with 5% of CO2. Absorbance was measured using a microplate spectrophotometer (Thermo) at 450 nm. The ratio of cell viability of control was taken as 100%. […] Then IC50 of the compounds were investigated using the prism statistical software.

PC-9 [5] = assay: Cell cycle assay (PI staining, flow cytometry), PC-9; conditions: 48 h
Method: (§8) Cancer cell lines PC-9 and H460 were then treated for 48 h with 9e or 9p at different concentrations to investigate the effects of these compounds on regulating the cell cycle. Cell cycle distributions were analyzed using the flow cytometry technique.
(§9) PC-9 and H460 cells were cultured in 6-well plates with a density of 3 × 10^5 cells/well. Cells were treated with different concentrations (0, 4, and 8 µM for PC-9 cells and H460 cells) of 9e or 9p for 48 h respectively. Then the cell cycle was determined by PI staining with the flow cytometer.

PC-9 [6] = assay: Cellular ROS measurement (DCFH-DA), PC-9; conditions: PC-9, 5 µM and 10 µM, 24 h, DCFH-DA staining
Method: as §5, §6

β-catenin = assay: Western blot of β-catenin in PC-9 cells; conditions: PC-9, 0, 2, 4, 8 µM, 48 h
Text: as §3, §4

H460 [7] = assay: Apoptosis assay (Annexin V-FITC/PI flow cytometry), H460; conditions: 48 h
Method: as §1, §2

H460 [8] = assay: Cell cycle assay (PI staining, flow cytometry), H460; conditions: H460, 48 h, 4 and 8 µM
Method: as §8, §9

H460 [9] = assay: CCK8 cell viability assay, H460; conditions: for Cell viability (100%): H460, 20 µM, 48 h, CCK8, control = 100%; for IC50: H460, 48 h, CCK8, mean ± SE
Method: as §7

Caspase3 = assay: Western blot of Caspase3 in PC-9 cells; conditions: PC-9, 0, 2, 4, 8 µM, 48 h
Text: as §3, §4

CyclinE = assay: Western blot of CyclinE in PC-9 cells; conditions: PC-9, 0, 2, 4, 8 µM, 48 h
Text: as §3, §4

Row | IC50 (PC-9 [4]) [µM] | IC50 (H460 [9]) [µM] | SMILES | cell apoptosis (PC-9 [1]; PC-9, 2 µM or 4 µM) | cell apoptosis (PC-9 [1]; PC-9, 8 µM) | expression of LC3 (LC3) | ROS generation (H460 [2]) | number of live cells (PC-9 [3]) | ratio of dead/live cells (PC-9 [3]) | CyclinD expression (CyclinD) | Cell viability (100%) (PC-9 [4]) [%] | ROS generation (PC-9 [6]) | β-catenin expression (β-catenin) | effect on cell cycle (H460 [8]) | Cell viability (100%) (H460 [9]) [%] | Caspase3 expression (Caspase3) | CyclinE expression (CyclinE) | other results
1 | 3.83 ± 0.73 | 11.8 ± 2.31 | COc1c2n(cc(C(=O)Nc3cccc(-c4cn(-c5cccc([N+](=O)[O-])c5C)nn4)c3)c1=O)C[C@@H]1OCC[C@@H](C)N1C2=O [Compound 9e] | little influence | significant effects on cell apoptosis | significantly increased | significantly increased | decreased significantly in a dose dependent manner | increased significantly with the increase of concentration | not affected | 24.05 | significantly increased | not affected | increased G2/M phase and had little influences on G0/G1 or S phase | 30.94 | not changed | not affected | effect on cell cycle (PC-9 [5]; PC-9, 4 µM): moderate effects on cell cycle; effect on cell cycle (PC-9 [5]; PC-9, 8 µM): decreased G0/G1 phase and increased S and G2/M phase; cell apoptosis (H460 [7]; H460, 8 µM and 16 µM): significant increased apoptosis
2 | 3.17 ± 0.18 | 10.7 ± 0.48 | COc1c2n(cc(C(=O)Nc3cccc(-c4cn(-c5cccc(C(F)(F)F)c5)nn4)c3)c1=O)C[C@@H]1OCC[C@@H](C)N1C2=O [Compound 9p] | little influence | significant effects on cell apoptosis | significantly increased | significantly increased | decreased with the increase of concentration | increased compared with untreated group but not completely in a dose dependent manner | not affected | 2.11 | significantly increased | not affected | significantly decrease the S phase | 5.63 | not changed | not affected | effect on cell cycle (PC-9 [5]; PC-9, 4 µM and 8 µM): induced an S and G2/M cell cycle arrest; cell apoptosis (H460 [7]; H460, 4 µM, 8 µM and 16 µM): significantly increased apoptosis
